Source: article PMC11568214, “The impact of 9-azaglycophymine and phenylguanidine derivatives on the proliferation of various breast cancer cell lines in vitro and in vivo” (Scientific Reports, 2024)

Legend:
[1] = test system: BT-474; assay: Apoptosis analysis, AnnV/PI staining, flow cytometry; assay type: cell-based, human; details: BT-474, IC50 for 72 h; control cells 20%
Description: (§1) Cells were seeded in 6-well plates and incubated for 24 h under standard culture conditions. […] For apoptosis analyses, the cell suspension was centrifuged for 3 min at 800 rpm, and the cell pellet was stained by using 100 µL of AnnV/PI working solution (5 µL of AnnV, 2 µL of PI in 100 µL of PBS) for 15 min at RT and protected from light. The staining was terminated by the addition of 900 µL of annexin binding buffer. Finally, all samples were analyzed by using flow cytometry (FACSAria III, BD Biosciences, New Jersey, USA).

[2] = test system: MDA-MB-468; assay: as above; assay type: cell-based, human; details: MDA-MB-468, IC50 for 72 h
Description: as §1

[3] = test system: HCC1937; assay: as above; assay type: cell-based, human; details: HCC1937, IC50 for 72 h; control cells 19%
Description: as §1

[4] = test system: MCF-7; assay: as above; assay type: cell-based, human; details: MCF-7, IC50 for 72 h
Description: as §1

[5] = test system: 4T1; assay: Cell division analysis, CFSE staining, flow cytometry; assay type: cell-based, mouse; parameters: key: ↑: induction; ↓: inhibition; ↔: no effect; details: 4T1, IC50 for 72 h
Description: (§2) The cells were stained with CFSE (1 µM) in PBS containing 0.1% (v/v) FCS for 10 min. Afterwards, cells were washed with PBS, and then seeded with growth medium in 6-well plates. The plates were incubated for 24 h under standard culture conditions. […] Subsequently, the cells were detached using 0.5 mL of 0.05% (v/v) Trypsin–EDTA for 3 min at 37 °C. Then trypsin was deactivated by the addition of FCS-containing growth medium. The cell suspensions were collected, centrifuged for 3 min at 800 rpm, and the cell pellets were resuspended in fresh PBS. Finally, the samples were analyzed by using flow cytometry.

[6] = test system: BT-474; assay: as above; assay type: cell-based, human; parameters: key: ↑: induction; ↓: inhibition; ↔: no effect; details: BT-474, IC50 for 72 h
Description: as §2

[7] = test system: MDA-MB-468; assay: as above; assay type: cell-based, human; parameters: key: ↑: induction; ↓: inhibition; ↔: no effect; details: MDA-MB-468, IC50 for 72 h
Description: as §2

[8] = test system: HCC1937; assay: as above; assay type: cell-based, human; parameters: key: ↑: induction; ↓: inhibition; ↔: no effect; details: HCC1937, IC50 for 72 h
Description: as §2

[9] = test system: MCF-7; assay: as above; assay type: cell-based, human; parameters: key: ↑: induction; ↓: inhibition; ↔: no effect; details: MCF-7, IC50 for 72 h
Description: as §2

[10] = test system: BT-474; assay: ROS production, DHR staining, flow cytometry; assay type: cell-based, human; parameters: key: ↑: induction; ↓: inhibition; ↔: no effect; details: BT-474, IC50 for 72 h
Description: as §2, with “cytometry. For ROS production analyses, the procedure was performed exactly as described above for the cell division experiments, except that the CFSE staining solution was replaced by DHR staining solution resulting in 1 µM of DHR in PBS containing 0.1% (v/v) FCS[34],[35].” for “cytometry.”

[11] = test system: MDA-MB-468; assay: ROS production, DHR staining, flow cytometry; assay type: cell-based, human; parameters: key: ↑: induction; ↓: inhibition; ↔: no effect; details: MDA-MB-468, IC50 for 72 h
Description: as §2, with “cytometry. For ROS production analyses, the procedure was performed exactly as described above for the cell division experiments, except that the CFSE staining solution was replaced by DHR staining solution resulting in 1 µM of DHR in PBS containing 0.1% (v/v) FCS[34],[35].” for “cytometry.”

[12] = test system: HCC1937; assay: ROS production, DHR staining, flow cytometry; assay type: cell-based, human; parameters: key: ↑: induction; ↓: inhibition; ↔: no effect; details: HCC1937, IC50 for 72 h
Description: as §2, with “cytometry. For ROS production analyses, the procedure was performed exactly as described above for the cell division experiments, except that the CFSE staining solution was replaced by DHR staining solution resulting in 1 µM of DHR in PBS containing 0.1% (v/v) FCS[34],[35].” for “cytometry.”

[13] = test system: MCF-7; assay: ROS production, DHR staining, flow cytometry; assay type: cell-based, human; parameters: key: ↑: induction; ↓: inhibition; ↔: no effect; details: MCF-7, IC50 for 72 h
Description: as §2, with “cytometry. For ROS production analyses, the procedure was performed exactly as described above for the cell division experiments, except that the CFSE staining solution was replaced by DHR staining solution resulting in 1 µM of DHR in PBS containing 0.1% (v/v) FCS[34],[35].” for “cytometry.”

[14] = test system: MDA-MB-468; assay: Crystal violet (CV) cell viability assay, IC50 determination; assay type: cell-based, human
Description: For initial testing of the cytotoxic effect of the available glycophymine compounds (Table S2), cells were treated with compound in three concentrations: 1, 10 and 50 µM. Cells were seeded in 96-well plates and allowed to adhere overnight. Then they were treated for 72 h under standard culture conditions. […] For IC50 determination, the compounds were tested at seven concentrations (0.78, 1.56, 3.13, 6.25, 12.5, 25 and 50 µM). Subsequently, the cell viability was determined by using the crystal violet (CV) assay. Moreover, the selected compounds were tested against the mouse breast cancer cell line 4T1 (TNBC) as well. The compounds were prepared initially to obtain a stock solution of 20 mM in DMSO. Later, the working solutions were prepared by mixing the required amount of DMSO stock with the optimal medium for each cell line. The DMSO concentration in the final solution was always maintained lower than 0.5% to avoid any DMSO-derived side effects.
For CV assays, after 72 h treatment, the treatment medium was discarded from the 96-well plates, and the cells were washed using 50 µL of PBS. Cells were fixed by adding 50 µL of 4% (v/v) paraformaldehyde (PFA) in PBS for 15 min at room temperature (RT). Afterwards, PFA was discarded, and the plates were dried for 15 min at RT. 50 µL of CV working solution (0.1% w/v CV in PBS) were added to the wells, followed by 15 min incubation at RT. Subsequently, the CV solution was discarded, and the plates were washed using aqua bidest. (ddH2O) to remove any remaining CV solution. The plates were left to dry overnight at RT, and then 50 µL of 33% (v/v) acetic acid in ddH2O were added to each well. Finally, the absorbance was measured at 570 nm by using a SpectraMax M5 plate reader (Molecular Devices, California, USA) and at 670 nm as background wavelength. […] Additionally, gefitinib, an approved EGFR inhibitor of the quinazoline family, was tested as anti-proliferative positive control. The data represent the mean ± standard deviation derived from three independent biological replicates. Dose–response curves were generated by four-parametric non-linear regression analysis using the GraphPad Prism software (version: 10.1, San Diego, CA, USA). Based on that, IC50 values and standard deviations were calculated for each replicate individually.

O=c1[nH]c(Nc2ccc([N+](=O)[O-])cc2)nc2ccccc12 [Compound 19, 4′-nitro-9-aza-glycophymine]
percentage of apoptotic cells [1]: 51% | induction of apoptotic cell death [2]: did neither activate caspases nor apoptotic cell death | percentage of apoptotic cells [3]: 47% | induction of apoptotic cell death [4]: did neither activate caspases nor apoptotic cell death | Proliferation [5]: ↓ | Proliferation [6]: ↓ | Proliferation [7]: ↔ | Proliferation [8]: ↓ | Proliferation [9]: ↔ | ROS [10]: ↓ | ROS [11]: ↔ | ROS [12]: ↓ | ROS [13]: ↔ | toxicity against MDA-MB-468 in comparison to gefitinib ([14]; 72 h, Fig. S12): nearly three times higher toxicity | IC50 ([14]; Homo sapiens, MDA-MB-468, 72 h treatment, mean ± SD): 5.8 ± 0.3 µM
